According to US6683083B1, “Anticancer agents” (priority 1999, dated 2004):
Several values for one entry are separate records, joined by “and”; a condition that tells them apart may be missing. Equal values may be shown once.

Columns and labels:
[1] = tested on: HL60 (human leukemia cell line); experiment: MTT assay, in vitro antitumor effect; assay type: cell-based; details: HL60, 96 hours incubation, average±error range of triple culture tests, read-out: amount of compound 1 required to achieve IC50
Excerpt: (§1) (2) Verification of In Vitro Antitumor Effects on Various Human Cancer Cell Lines According to the MTT Assay Method.
(§2) Each single cell of a human non-small-cell lung cancer cell line PC-14, a human non-small-cell lung cancer cell line SBC-3, a human […] cell line MCF-7, a human non-small-cell ovarian cancer cell line SKOV3, a human leukemia cell line HL60 and a human colon cancer cell line WiDR was obtained by trypsinization or by using a cell scraper in RPMI 1640 medium to prepare a suspension containing 100 cells per 15 μl. The compound 1 as an anticancer agent was dissolved in dimethylsulfoxide and then the solution was added to the suspension to make the concentration of the compound fall within a range between 0.5 and 1 μM, and the resulting suspension was poured into a 96-perforated plate at 150 μl/well. This plate was maintained at a temperature of 37° C. under 5% of carbon dioxide and saturated vapor for 96 hours to incubate the suspension. After incubation, the incubated suspension was combined with 20 μl of MTT (3-(4,5-dimethylthiazol-2-yl)-2,5-diphenyltetrazoliumbromide) reagent dissolved in D-PBS (−) at a concentration of 5 mg/ml, and was further incubated at 37° C. for 4 hours. After the completion of incubation, the entire plate was centrifuged to discharge supernatant. Then, 200 μl of dimethyl sulfoxide was added to dissolve purple formazan which is created from yellow MTT by the action of dehydrogenase lying in mitochondria in the cancer cell, and the amount of the created formazan was determined by reading the absorbance at a wave length ranging from 562 to 630 nm with a multi-plate reader. Given that the average growth rate of a negative control is […] and the average growth rate of a positive control is 100%, a tumor-volume growth curve was plotted, and the concentration of compound 1 required for 50% of human cancer-cell proliferation suppression was calculated.
(§3) The values in Table 1 indicate each value of the concentration required for 50% of human cancer-cell proliferation suppression from the MTT assay in triple culture tests of independent cancer cells using compound 1 by average±error range (μM).

[2] = tested on: MCF-7 (human mammary cancer cell line); experiment: MTT assay, in vitro antitumor effect; assay type: cell-based; details: MCF-7, 96 hours incubation, average±error range of triple culture tests, read-out: amount of compound 1 required to achieve IC50
Excerpt: as §1, §2, §3

[3] = tested on: SBC-3 (human small-cell lung cancer cell line); experiment: MTT assay, in vitro antitumor effect; assay type: cell-based; details: SBC-3, 96 hours incubation, average±error range of triple culture tests, read-out: amount of compound 1 required to achieve IC50
Excerpt: as §1, §2, §3

[4] = tested on: SKOV3 (human ovarian cancer cell line); experiment: MTT assay, in vitro antitumor effect; assay type: cell-based; details: SKOV3, 96 hours incubation, average±error range of triple culture tests, read-out: amount of compound 1 required to achieve IC50
Excerpt: as §1, §2, §3

[5] = tested on: WiDR (human colon cancer cell line); experiment: MTT assay, in vitro antitumor effect; assay type: cell-based; details: 96 hours incubation, average±error range of triple culture tests, read-out: amount of compound 1 required to achieve IC50
Excerpt: as §1, §2, §3

[6] = tested on: human non-small-cell lung cancer cell line PC-14; experiment: MTT assay, in vitro antitumor effect; assay type: cell-based; details: PC-14, 96 hours incubation, average±error range of triple culture tests, read-out: amount of compound 1 required to achieve IC50
Excerpt: as §1, §2, §3

[7] = tested on: fibroblasts NIH3T3; experiment: Fibroblast cell-proliferation suppression (cell count); assay type: cell-based; details: NIH3T3, 1×10^−6 M and 3×10^−6 M, cell number every 24 hours, FIG. 1
Procedure: FIG. 1 is a graph showing a cell-proliferation suppressing action against fibroblast of the compound represented by the above general formula [1] and the like shown in Example 2.
Nine plates were prepared for each of control and compound 1 groups each having a concentration of 1×10^−6 M and a compound 1 group having a concentration of 3×10^−6 M (total of 27 plates). The number 4.4×10^5 of fibroblasts NIH3T3 were added to each of the 27 plates, and D-MEM culture solution added with 10% FBS (fetal bovine serum) was added thereto. Each of the controls was incubated with added water corresponding to the added amount of compound 1. The number of cells in 3 plates of each of the groups was measured every 24 hours, and the measured numbers were averaged to provide an average cell number per plate.

[8] = tested on: human non-small-cell lung cancer cell line PC-14; experiment: PC-14 subcutaneous implant in nude mice, tumor volume; assay type: in vivo, female nude mice BALB/c nu/nu; design: key: relative tumor volume, 1st day = 100; volume = minor axis^2 × major axis; details: 1st day = 100
[9] = Entire body state and weight of tumor-bearing nude mice; assay type: in vivo, female nude mice BALB/c nu/nu; details: 3 and 5 mg/kg by tail injection, once a day on 7th, 8th, 10th, 11th days after implantation
Procedure: For six subjects of the group number 1, the compound 1 was administered by injecting from each tail of the nude mice on each of the 7th, 8th, 10th and 11th days after the implantation, at 3 mg of the compound 1 per kg of weight once a day. For six subjects of the group number 2, the compound 1 was administered by injecting from each tail of the nude mice on each of the 7th, 8th, 10th and 11th days after the implantation, at 5 mg of the compound 1 per kg of weight once a day. The subjects of the group number […] to be the controls were a group having no administration of the compound 1, and neither administration nor treatment of the compound 1 was performed on the controls. […] However, in the result of each tumor volume of the mice, a specific difference was found between the subjects of the group numbers 1 to 3. The measurement of the tumor volumes is shown in the following Table 2, and the average of the tumor volumes in each of the groups is shown in Table 3. In Tables 2 and 3, each size of the tumor volumes after the 2nd day is represented on condition that the size of the tumor volume on the 1st day is 100.

[10] = tested on: various cancers; experiment: Overall carcinostatic effect, results of examples 1 to 3; details: overall statement

Structure (SMILES): OC(CN1CCN(C(c2ccccc2)c2ccccc2)CC1)CN1CCC(O)(c2ccc(Cl)cc2)CC1 (stereo not shown) [compound 1, 1-[1-4-(diphenylmethyl)piperazinyl]-3-[1-{4-(4-chlorophenyl)-4-hydroxy}piperidinyl]-2-propanol]
- IC50 [1]: 1180 ± 50 nM
- IC50 [2]: 600 ± 80 nM
- IC50 [3]: 460 ± 30 nM
- IC50 [4]: 850 ± 20 nM
- IC50 [5]: 410 ± 30 nM
- IC50 [6]: 1020 ± 200 nM
- cell-proliferation suppressing action against fibroblast [7]: effectiveness to proliferative lesions
- tumor volume, average (6 mice) ([8]; group No. 2 (3 mg/kg tail injection), 2 day): 89.79
- tumor volume, individual mice ([8]; group No. 2 (3 mg/kg tail injection), 2 day, 3 mg/kg): 45.35 and 120.51 and 139.67 and 73.21 and 73.29 and 66.68
- tumor volume, average (6 mice) ([8]; group No. 2 (3 mg/kg tail injection), 3 day): 67.01
- tumor volume, individual mice ([8]; group No. 2 (3 mg/kg tail injection), 3 day, 3 mg/kg): 20.22 and 98.14 and 85.27 and 52.91 and 62.47 and 83.06
- tumor volume, average (6 mice) ([8]; group No. 2 (3 mg/kg tail injection), 4 day): 68.38
- tumor volume, individual mice ([8]; group No. 2 (3 mg/kg tail injection), 4 day, 3 mg/kg): 46.17 and 80.18 and 105.01 and 42.19 and 31.02 and 85.73
- tumor volume, average (6 mice) ([8]; group No. 2 (3 mg/kg tail injection), 5 day): 46.68
- tumor volume, individual mice ([8]; group No. 2 (3 mg/kg tail injection), 5 day, 3 mg/kg): 31.44 and 66.58 and 67.76 and 22.55 and 18.55 and 51.09
- tumor volume, average (6 mice) ([8]; group No. 2 (3 mg/kg tail injection), 6 day): 47.73
- tumor volume, individual mice ([8]; group No. 2 (3 mg/kg tail injection), 6 day, 3 mg/kg): 30.93 and 122.90 and 55.16 and 0.00 and 10.11 and 51.30
- tumor volume, average (6 mice) ([8]; group No. 2 (3 mg/kg tail injection), 7 day): 42.99
- tumor volume, individual mice ([8]; group No. 2 (3 mg/kg tail injection), 7 day, 3 mg/kg): 52.68 and 99.04 and 75.58 and 0.00 and 12.98 and 47.68
- tumor volume, average (6 mice) ([8]; group No. 2 (3 mg/kg tail injection), 8 day): 58.33
- tumor volume, individual mice ([8]; group No. 2 (3 mg/kg tail injection), 8 day, 3 mg/kg): 56.49 and 127.45 and 130.56 and 0.00 and 4.97 and 30.49
- tumor volume, average (6 mice) ([8]; group No. 3 (5 mg/kg tail injection), 2 day): 78.63
- tumor volume, individual mice ([8]; group No. 3 (5 mg/kg tail injection), 2 day, 5 mg/kg): 55.40 and 63.47 and 93.53 and 68.25 and 90.42 and 80.68
- tumor volume, average (6 mice) ([8]; group No. 3 (5 mg/kg tail injection), 3 day): 75.11
- tumor volume, individual mice ([8]; group No. 3 (5 mg/kg tail injection), 3 day, 5 mg/kg): 58.27 and 43.51 and 72.22 and 113.73 and 70.23 and 92.68
- tumor volume, average (6 mice) ([8]; group No. 3 (5 mg/kg tail injection), 4 day): 74.99
- tumor volume, individual mice ([8]; group No. 3 (5 mg/kg tail injection), 4 day, 5 mg/kg): 79.34 and 40.73 and 83.65 and 123.79 and 36.86 and 84.55
- tumor volume, average (6 mice) ([8]; group No. 3 (5 mg/kg tail injection), 5 day): 60.45
- tumor volume, individual mice ([8]; group No. 3 (5 mg/kg tail injection), 5 day, 5 mg/kg): 47.44 and 40.65 and 62.95 and 103.32 and 28.95 and 79.20
- tumor volume, average (6 mice) ([8]; group No. 3 (5 mg/kg tail injection), 6 day): 53.82
- tumor volume, individual mice ([8]; group No. 3 (5 mg/kg tail injection), 6 day, 5 mg/kg): 33.96 and 32.21 and 54.93 and 135.18 and 14.65 and 51.96
- tumor volume, average (6 mice) ([8]; group No. 3 (5 mg/kg tail injection), 7 day): 64.86
- tumor volume, individual mice ([8]; group No. 3 (5 mg/kg tail injection), 7 day, 5 mg/kg): 34.07 and 36.27 and 86.76 and 129.59 and 17.36 and 85.12
- tumor volume, average (6 mice) ([8]; group No. 3 (5 mg/kg tail injection), 8 day): 62.63
- tumor volume, individual mice ([8]; group No. 3 (5 mg/kg tail injection), 8 day, 5 mg/kg): 47.99 and 15.80 and 102.87 and 140.33 and 7.22 and 61.54
- entire body state and weight of the mice versus control [9]: substantially no difference
- carcinostatic effect (results of examples 1 to 3) [10]: high carcinostatic effect
